Measurements: ChEMBL document CHEMBL1201862, “PubChem BioAssay data set” (2004)
Active and inactive are the calls of the source.

Experiments:
[1] = luciferase reporter signal suppression in cells – H4 neuroglioma cells, luminescence, dose response (AID 1990); type: functional, cell-based
[2] = system: Streptococcus sp. 'group A'; experiment: Streptococcus pyogenes SK(-)GAS viability under kanamycin – luminescence, BacTiterGlo, confirmation, counter-screen for streptokinase expression inhibitor project, dose response (AID 1900); type: functional, organism-based
[3] = Luminescence Cell-Based Dose Response HTS to Identify Inhibitors of 5'UTR Stem-Loop Driven Prion Protein mRNA Translation in H4 Neuroglioblastoma Cells. [Related pubchem assays: 1827 (Project Summary), 1813 (Primary HTS)]; type: functional
[4] = alpha-synuclein stem-loop luciferase translation blockers – H4 neuroglioma cells, luminescence, confirmation (AID 1988); type: functional, cell-based
[5] = HPDE-C7 pancreatic duct cell viability loss – fluorescence, HTS (AID 430); type: functional, cell-based; details: Homo sapiens
[6] = Trypanosoma cruzi growth suppression in host cells – NIH3T3 host cells, beta-gal luminescence, confirmation (AID 2044); type: functional, cell-based;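 also: intracellular parasites grown in NIH/3T3 mouse fibroblasts as host cells; luminescent beta-galactosidase reporter signal from transgenic T. cruzi replicating inside host cells; inhibitors lower the luminescence signal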
[7] = viability loss of HPDE-C7K cells – cell-based, fluorescence, HTS, primary screen (AID 431); type: functional; details: Homo sapiens
[8] = viability of PTEN-deleted HCT116 cells – cell-based, HCT116 PTEN knockout, dose response (AID 1047); type: functional;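 also: HCT116 colon tumor cells with PTEN knocked out; cells exposed to compound for 60 hours before readout; potency for loss of cell viability measured by luminescence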
[9] = NIH3T3 cell viability loss – ATP luminescence, mouse fibroblasts, counter-screen, dose response (AID 2010); type: functional, cell-based;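 also: cells exposed to compound for about 90 hours before reading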
[10] = viability of HCT116 lacking mutant beta-catenin – cell-based, human colon tumor, dose response (AID 1045); type: functional;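 also: HCT116 colon tumor cells with beta catenin knocked out; cells exposed to compound for 60 hours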
Streptococcus = experiment: GAS UMAA2166 growth inhibition – luminescence, BacTiterGlo, counter-screen for streptokinase expression inhibitor project, dose response (AID 1915); type: functional, organism-based;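 also: potency for reduction of bacterial viability or growth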
[11] = molecular target: T1, Mannose-6-phosphate isomerase (Homo sapiens, UniProt P34949); experiment: MPI inhibition at elevated mannose 6-phosphate – biochemical, fluorescence intensity, high mannose 6-phosphate, primary screen (AID 1220)
T1 sequence (P34949 whole entry): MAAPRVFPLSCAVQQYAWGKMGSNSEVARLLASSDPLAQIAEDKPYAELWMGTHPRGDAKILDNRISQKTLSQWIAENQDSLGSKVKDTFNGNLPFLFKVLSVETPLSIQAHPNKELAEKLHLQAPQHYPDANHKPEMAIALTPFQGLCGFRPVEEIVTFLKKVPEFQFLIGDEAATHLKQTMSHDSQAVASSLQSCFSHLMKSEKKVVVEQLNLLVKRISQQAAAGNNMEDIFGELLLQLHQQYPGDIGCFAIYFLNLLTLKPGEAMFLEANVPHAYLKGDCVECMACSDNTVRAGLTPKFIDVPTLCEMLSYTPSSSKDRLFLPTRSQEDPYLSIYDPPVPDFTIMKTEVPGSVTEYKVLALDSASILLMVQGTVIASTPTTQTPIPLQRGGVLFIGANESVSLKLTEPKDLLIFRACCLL

[12] = molecular target: T2, Short transient receptor potential channel 4 (Mus musculus, UniProt Q9QUQ5); experiment: block of DAMGO-driven TRPC4 calcium entry – cell-based, HEK293 TRPC4/mu-opioid, Fluo-4 calcium, dose response (AID 434942); type: functional;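 also: potency of inhibitors blocking the TRPC4 calcium response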
T2 sequence (Q9QUQ5 whole entry): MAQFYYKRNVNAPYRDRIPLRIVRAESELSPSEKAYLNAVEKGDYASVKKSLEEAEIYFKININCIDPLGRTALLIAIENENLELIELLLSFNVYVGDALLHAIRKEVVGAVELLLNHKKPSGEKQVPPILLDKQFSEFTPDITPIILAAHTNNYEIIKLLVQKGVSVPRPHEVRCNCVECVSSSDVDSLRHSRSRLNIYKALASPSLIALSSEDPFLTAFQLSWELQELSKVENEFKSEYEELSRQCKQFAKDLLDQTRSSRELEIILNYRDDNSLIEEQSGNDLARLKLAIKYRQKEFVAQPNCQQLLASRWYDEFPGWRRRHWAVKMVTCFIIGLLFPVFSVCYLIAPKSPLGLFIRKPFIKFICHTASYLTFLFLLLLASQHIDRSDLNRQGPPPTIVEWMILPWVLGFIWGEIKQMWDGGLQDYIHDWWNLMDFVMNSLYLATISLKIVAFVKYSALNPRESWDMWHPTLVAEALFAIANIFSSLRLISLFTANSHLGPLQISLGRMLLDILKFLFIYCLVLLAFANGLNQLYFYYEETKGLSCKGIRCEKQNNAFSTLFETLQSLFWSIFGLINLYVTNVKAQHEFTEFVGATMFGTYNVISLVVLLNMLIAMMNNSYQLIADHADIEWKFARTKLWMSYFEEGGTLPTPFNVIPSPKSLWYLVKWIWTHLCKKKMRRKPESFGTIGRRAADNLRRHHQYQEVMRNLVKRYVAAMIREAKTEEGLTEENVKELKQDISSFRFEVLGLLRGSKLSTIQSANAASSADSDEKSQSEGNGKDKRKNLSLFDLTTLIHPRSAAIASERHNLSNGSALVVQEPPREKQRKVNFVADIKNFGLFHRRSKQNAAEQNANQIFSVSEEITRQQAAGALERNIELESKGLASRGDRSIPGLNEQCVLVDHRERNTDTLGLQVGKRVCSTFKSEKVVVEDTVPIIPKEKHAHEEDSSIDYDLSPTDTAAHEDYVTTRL

Nonstructural protein 1 = Nonstructural protein 1 (Influenza A virus, UniProt Q194T2); type: functional, Influenza A virus (A/California/07/2009(H1N1))
Chain of Nonstructural protein 1 (Q194T2 whole entry): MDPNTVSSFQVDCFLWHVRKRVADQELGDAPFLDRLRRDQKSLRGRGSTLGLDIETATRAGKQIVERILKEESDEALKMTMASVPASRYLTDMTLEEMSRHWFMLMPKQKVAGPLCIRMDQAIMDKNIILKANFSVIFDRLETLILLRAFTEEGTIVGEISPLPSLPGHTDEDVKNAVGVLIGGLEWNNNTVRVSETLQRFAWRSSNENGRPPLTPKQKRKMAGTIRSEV

Cytochrome P450 2C19 = Cytochrome P450 2C19 (Homo sapiens, UniProt P33261); experiment: Cytochrome panel assay with activity outcomes. Panel member name: p450-cyp2c19 Compounds with AC50 equal or less than 10 uM are considered active; type: functional; details: read-out: AC50
Chain of Cytochrome P450 2C19 (P33261 whole entry): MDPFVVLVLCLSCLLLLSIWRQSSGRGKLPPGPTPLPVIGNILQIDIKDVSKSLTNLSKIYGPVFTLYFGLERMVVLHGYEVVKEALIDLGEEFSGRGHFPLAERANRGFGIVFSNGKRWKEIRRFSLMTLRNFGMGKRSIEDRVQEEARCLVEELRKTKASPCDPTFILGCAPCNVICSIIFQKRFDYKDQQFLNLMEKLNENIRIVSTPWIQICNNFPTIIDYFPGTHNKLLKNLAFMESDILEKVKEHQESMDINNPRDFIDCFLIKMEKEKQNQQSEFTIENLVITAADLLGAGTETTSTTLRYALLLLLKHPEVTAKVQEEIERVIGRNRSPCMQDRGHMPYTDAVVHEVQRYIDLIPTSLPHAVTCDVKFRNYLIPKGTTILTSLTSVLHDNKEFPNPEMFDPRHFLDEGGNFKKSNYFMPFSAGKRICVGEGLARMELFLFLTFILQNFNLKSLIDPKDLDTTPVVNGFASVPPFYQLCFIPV

[13] = molecular target: Heat shock protein HSP 90-alpha (Homo sapiens, UniProt P07900); type: functional, organism-based
Large T antigen = Large T antigen (Simian virus 40, UniProt P03070); type: functional, Betapolyomavirus macacae;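 also: Confirmatory-stage PubChem screen for compounds that inhibit SV40 T antigen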
Chain of Large T antigen (P03070 whole entry): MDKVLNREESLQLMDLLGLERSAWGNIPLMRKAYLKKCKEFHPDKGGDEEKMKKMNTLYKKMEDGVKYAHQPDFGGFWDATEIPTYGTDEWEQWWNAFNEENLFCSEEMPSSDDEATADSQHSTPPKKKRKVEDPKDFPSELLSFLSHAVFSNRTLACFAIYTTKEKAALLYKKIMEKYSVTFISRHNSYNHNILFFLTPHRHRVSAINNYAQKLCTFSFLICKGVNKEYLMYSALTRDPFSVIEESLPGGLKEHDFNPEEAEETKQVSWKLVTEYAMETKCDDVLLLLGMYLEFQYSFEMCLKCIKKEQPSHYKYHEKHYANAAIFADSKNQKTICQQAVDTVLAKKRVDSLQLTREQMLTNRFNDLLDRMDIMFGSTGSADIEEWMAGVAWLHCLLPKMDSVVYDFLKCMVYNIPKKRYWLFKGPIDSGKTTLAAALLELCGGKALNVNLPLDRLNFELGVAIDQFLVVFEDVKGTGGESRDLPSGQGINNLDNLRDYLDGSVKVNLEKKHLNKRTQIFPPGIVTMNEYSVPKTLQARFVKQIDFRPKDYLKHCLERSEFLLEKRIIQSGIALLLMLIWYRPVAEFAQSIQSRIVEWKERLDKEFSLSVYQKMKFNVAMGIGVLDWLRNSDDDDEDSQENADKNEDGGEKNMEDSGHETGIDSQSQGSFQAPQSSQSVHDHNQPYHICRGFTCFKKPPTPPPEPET

[14] = molecular target: Induced myeloid leukemia cell differentiation protein Mcl-1 (Homo sapiens, UniProt Q07820); experiment: blockers of MCL1 binding to BIM peptide – biochemical, fluorescence polarization, BIM-BH3 peptide, 1536-well, dose response (AID 2217)
Chain of Induced myeloid leukemia cell differentiation protein Mcl-1 (Q07820 whole entry): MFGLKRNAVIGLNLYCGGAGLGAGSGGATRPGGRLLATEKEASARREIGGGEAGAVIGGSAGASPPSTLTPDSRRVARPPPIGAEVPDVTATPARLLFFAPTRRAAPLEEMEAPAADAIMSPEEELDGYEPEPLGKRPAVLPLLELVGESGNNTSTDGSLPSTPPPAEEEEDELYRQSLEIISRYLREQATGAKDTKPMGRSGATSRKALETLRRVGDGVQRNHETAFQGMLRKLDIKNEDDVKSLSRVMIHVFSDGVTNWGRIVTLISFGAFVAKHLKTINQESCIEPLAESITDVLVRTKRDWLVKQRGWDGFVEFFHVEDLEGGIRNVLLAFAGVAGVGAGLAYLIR

Bcl-2-like protein 1 = Bcl-2-like protein 1 (Homo sapiens, UniProt Q07817); experiment: blockers of BCLXL peptide binding – biochemical, fluorescence polarization, 1536-well, selectivity assay for MCL1 inhibitor project, dose response (AID 2218)
Chain of Bcl-2-like protein 1 (Q07817 whole entry): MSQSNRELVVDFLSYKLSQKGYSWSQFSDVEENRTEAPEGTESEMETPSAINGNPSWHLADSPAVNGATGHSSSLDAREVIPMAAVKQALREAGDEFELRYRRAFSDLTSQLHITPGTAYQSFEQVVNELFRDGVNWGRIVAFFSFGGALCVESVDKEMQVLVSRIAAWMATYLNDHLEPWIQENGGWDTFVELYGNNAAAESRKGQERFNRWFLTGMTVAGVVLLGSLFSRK

Protein Tat = molecular target: T3, Protein Tat (Human immunodeficiency virus type 1 group M subtype B (isolate HXB2)(HIV-1), UniProt P04608); type: functional;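 also: tat binding to TAR RNA read out by fluorescence polarization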
T3 sequence (P04608 whole entry): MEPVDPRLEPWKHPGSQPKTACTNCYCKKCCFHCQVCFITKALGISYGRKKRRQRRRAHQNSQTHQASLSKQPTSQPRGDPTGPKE

| SMILES | EC50 [1] | EC50 [2] | EC50 [3] | EC50 [4] | EC50 [5] | EC50 [6] | EC50 [7] | EC50 [8] | EC50 [9] | EC50 [10] | EC50 (Streptococcus) | IC50 [11] | EC50 [12] | IC50 (Nonstructural protein 1) | AC50 (Cytochrome P450 2C19) | AC50 [13] | IC50 (Large T antigen) | IC50 [14] | IC50 (Bcl-2-like protein 1) | IC50 (Protein Tat) |
| --- | --- | --- | --- | --- | --- | --- | --- | --- | --- | --- | --- | --- | --- | --- | --- | --- | --- | --- | --- | --- |
| Oc1c(CN2CCCCC2)cc(Br)c2cccnc12 | 5.98 µM (active) | 3.42 µM (active) | 1.63 µM (active) | 4.28 µM (active) | 7.75 µM (active) | 1.16 µM (active) | 10.4 µM (active) | 1.95 µM (active) | 6.38 µM (active) | 1.64 µM (active) | 10.7 µM (active) | 15 µM (active) | 4.22 µM (active) | 3.55 µM (active) | 39.8 µM (inconclusive) | 6.04 µM (active) | – | – | – | – |
| O=C1NC(=O)N(c2cccc(Cl)c2)C(=O)/C1=C\c1ccc(Sc2nc3ccccc3[nH]2)o1 | – | – | – | – | – | – | – | – | – | – | – | – | – | – | – | – | 66.2 µM (active) | 8.64 µM (active) | > 12.1 µM (not active) | > 100 µM (active) |
